Literature values in patent US7994157B2, “Method for dispersing plant sterol for beverage and a plant sterol-dispersed beverage, of which particle size is nanometer-scale in dispersed beverage” (KIP Biotech LLC, priority 2000, dated 2011).

Test system: serum cholesterol level
Conditions: applied form in an oil phase (margarine); U.S. Pat. No. 5,502,045

sitostanol fatty acid ester
reduction of the LDL-C level: ≤ 16%
